Earlier results in patent publication US8476252B2, “Pharmaceutical emulsion compositions comprising progestogen” (Besins Healthcare Luxembourg SARL, priority 2010, dated 2013).

System: TBI patients
Details: Xiao et al 2008, Wright et al 2007

**Q.** With `CC(=O)[C@H]1CC[C@H]2[C@@H]3CCC4=CC(=O)CC[C@]4(C)[C@H]3CC[C@]12C` [progesterone, pregn-4-ene-3,20-dione] as the compound, how does the Safety and tolerability (TBI patients) read?
**A.** The Safety and tolerability was “safe and well tolerated”.

**Q.** And the Mortality (administration of progesterone to TBI patients)?
**A.** Its Mortality is “decreased mortality”.
